Read-outs that look alike come from different tables or passages of the source.
Molecular target: T1, human APJ receptor (Homo sapiens, UniProt P35414)
T1 construct: expressed in transfected cells
T1 sequence (P35414 1-380): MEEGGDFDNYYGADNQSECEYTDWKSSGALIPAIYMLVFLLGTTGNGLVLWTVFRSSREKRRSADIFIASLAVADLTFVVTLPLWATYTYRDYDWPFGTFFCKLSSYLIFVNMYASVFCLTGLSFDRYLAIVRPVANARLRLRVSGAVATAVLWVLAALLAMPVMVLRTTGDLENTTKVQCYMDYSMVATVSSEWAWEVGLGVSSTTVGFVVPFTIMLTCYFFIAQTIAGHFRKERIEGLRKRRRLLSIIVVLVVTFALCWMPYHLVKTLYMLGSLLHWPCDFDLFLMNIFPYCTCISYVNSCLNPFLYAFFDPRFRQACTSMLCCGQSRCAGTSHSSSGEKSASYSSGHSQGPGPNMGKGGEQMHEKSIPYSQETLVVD
Test: Intracellular cAMP accumulation assay (APJ hcAMP, HTRF)
Type: cell-based
How it was run: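 Inhibition of 2 μM forskolin-driven cAMP ([…] present) measured by HTRF in 5,000 HEK293 cells/well stably expressing human APJ, 30 min, room temperature. EC50 came from a variable-slope sigmoidal fit; Ymax was relative to (Pyr1)apelin-13 set at 100%.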

[1] = Table 1, HEK293 cells stably expressing human APJ receptor, inhibition of forskolin-mediated cAMP production, read-out: APJ hcAMP EC50
[2] = human APJ, cAMP, potency range class, read-out: APJ cAMP Human EC50

Molecule | EC50 [1] [nM] | EC50 [2] [nM] | EC50 (Table 3, HEK293 cells stably expressing human APJ receptor, read-out: APJ cAMP Human EC50) [nM]
CCC[C@H](NC(=O)c1ccc(-c2c(Cl)cccc2-c2nc3ccccc3[nH]2)c(C(=O)O)c1)c1ccc(Cl)cc1 [Example 187, (S)-2′-(1H-1,3-benzodiazol-2-yl)-6′-chloro-4-{[1-(4-chlorophenyl)butyl]carbamoyl}-[1,1′-biphenyl]-2-carboxylic acid] | < 10 | < 10 | –
CCC[C@H](NC(=O)c1ccc(-c2c(Cl)cccc2-c2nc3ccccc3[nH]2)c(C(=O)O)c1)c1cccnc1 [Example 193, (S)-2′-(1H-1,3-benzodiazol-2-yl)-6′-chloro-4-{[1-(pyridin-3-yl)butyl]carbamoyl}-[1,1′-biphenyl]-2-carboxylic acid] | 10 to 100 | – | –
CCCC(NC(=O)c1ccc(-c2c(Cl)cccc2-c2nc3ccccc3[nH]2)c(C(=O)O)c1)c1cncs1 [Example 194, (S)-2′-(1H-1,3-benzodiazol-2-yl)-6′-chloro-4-{[1-(1,3-thiazol-5-yl)butyl]carbamoyl}-[1,1′-biphenyl]-2-carboxylic acid] | 10 to 100 | 10 to 100 | –
COc1cc2nc(-c3cccc(Cl)c3-c3ccc(C(=O)NC(c4ccc(Cl)cc4)C4CC4)cc3C(=O)NS(C)(=O)=O)[nH]c2cc1F (stereo not shown) [Example 206, 2′-chloro-N4-[(4-chlorophenyl)(cyclopropyl)methyl]-6′-(6-fluoro-5-methoxy-1H-1,3-benzodiazol-2-yl)-N2-methanesulfonyl-[1,1′-biphenyl]-2,4-dicarboxamide] | 10 to 100 | 10 to 100 | –
CCCC(NC(=O)c1ccc(-c2cc(Cl)ccc2-c2nc3ccccc3[nH]2)c(C(=O)O)c1)c1ccccc1OC (stereo not shown) [Example 208, 2′-(1H-1,3-benzodiazol-2-yl)-5′-chloro-4-{[1-(2-methoxyphenyl)butyl]carbamoyl}-[1,1′-biphenyl]-2-carboxylic acid] | < 10 | – | –
CCCC(NC(=O)c1ccc(-c2cc(Cl)ccc2-c2nc3cc(OC)ccc3[nH]2)c(C(=O)O)c1)c1ccccc1OC (stereo not shown) [Example 218, 5′-chloro-2′-(5-methoxy-1H-1,3-benzodiazol-2-yl)-4-{[1-(2-methoxyphenyl)butyl]carbamoyl}-[1,1′-biphenyl]-2-carboxylic acid] | < 10 | < 10 | –
O=C(N[C@H](c1ccc(F)cc1)C1CC1)c1ccc(-c2c(Cl)cccc2-c2nc3ccccc3[nH]2)c(C(=O)O)c1 [Example 219, (S)-2′-(1H-1,3-benzodiazol-2-yl)-6′-chloro-4-{[cyclopropyl(4-fluorophenyl)methyl]carbamoyl}-[1,1′-biphenyl]-2-carboxylic acid] | < 10 | < 10 | –
O=C(N[C@@H](CCC(F)(F)F)c1ccccc1)c1ccc(-c2c(Cl)cccc2-c2nc3ccccc3[nH]2)c(C(=O)O)c1 [Example 226, (S)-2′-(1H-1,3-benzodiazol-2-yl)-6′-chloro-4-[(4,4,4-trifluoro-1-phenylbutyl)carbamoyl]-[1,1′-biphenyl]-2-carboxylic acid] | < 10 | < 10 | –
COC[C@@H](NC(=O)c1ccc(-c2c(Cl)cccc2-c2nc3ccccc3[nH]2)c(C(=O)O)c1)C1CC1 [Example 230, (S)-2′-(1H-1,3-benzodiazol-2-yl)-6′-chloro-4-[(1-cyclopropyl-2-methoxyethyl)carbamoyl]-[1,1′-biphenyl]-2-carboxylic acid] | 101 to 500 | 101 to 500 | –
(S)-2′-chloro-4-{[(1R)-1-cyclohexylbutyl]carbamoyl}-6′-(6-fluoro-5-methoxy-1H-1,3-benzodiazol-2-yl)-[1,1′-biphenyl]-2-carboxylic acid [Example 160] | < 10 | < 10 | –
(S)-2′-chloro-6′-(5- chloro-6-methyl-1H- 1,3-benzodiazol-2- yl)-4-{[(1R)-1- phenylbutyl] carbamoyl}- [1,1′-biphenyl]-2- carboxylic acid [Example 91] | < 10 | – | < 10

Second part, led by results:

EC50 [1] [nM] | EC50 [2] [nM] | Molecule | EC50 (Table 3, HEK293 cells stably expressing human APJ receptor, read-out: APJ cAMP Human EC50) [nM]
10 to 100 | 10 to 100 | CCC[C@H](NC(=O)c1ccc(-c2c(Cl)cccc2-c2nc3ccccc3[nH]2)c(C(=O)O)c1)c1cccnc1 [Example 190, (S)-2′-(1H-1,3-benzodiazol-2-yl)-6′-chloro-4-{[1-(pyridin-3-yl)butyl]carbamoyl}[1,1′-biphenyl]-2-carboxylic acid] | –
< 10 | < 10 | CCC[C@H](NC(=O)c1ccc(-c2c(Cl)cccc2-c2nc3cc(Cl)c(F)cc3[nH]2)c(C(=O)O)c1)C1CCCCCC1 [Example 202, (S)-2′-chloro-6′-(5-chloro-6-fluoro-1H-1,3-benzodiazol-2-yl)-4-[(1-cycloheptylbutyl)carbamoyl]-[1,1′-biphenyl]-2-carboxylic acid] | –
10 to 100 | 10 to 100 | CCCC(NC(=O)c1ccc(-c2cc(Cl)ccc2-c2nc3cc(C(C)(C)C)ccc3[nH]2)c(C(=O)OC)c1)c1ccccc1OC (stereo not shown) [Example 203, methyl 2′-(5-tert-butyl-1H-1,3-benzodiazol-2-yl)-5′-chloro-4-{[1-(2-methoxyphenyl)butyl]carbamoyl}-[1,1′-biphenyl]-2-carboxylate] | –
< 10 | < 10 | CCCC(NC(=O)c1ccc(-c2cc(Cl)ccc2-c2nc3ccccc3[nH]2)c(C(=O)O)c1)c1ccccc1OC (stereo not shown) [Example 207, 2′-(1H-1,3-benzodiazol-2-yl)-5′-chloro-4-{[1-(2-methoxyphenyl)butyl]carbamoyl}-[1,1′-biphenyl]-2-carboxylic acid] | –
101 to 500 | 101 to 500 | O=C(NC(CC1CCOCC1)c1ccccc1)c1ccc(-c2cc(Cl)ccc2-c2nc3ccccc3[nH]2)c(C(=O)O)c1 (stereo not shown) [Example 216, 2′-(1H-1,3-benzodiazol-2-yl)-5′-chloro-4-{[2-(oxan-4-yl)-1-phenylethyl]carbamoyl}-[1,1′-biphenyl]-2-carboxylic acid] | –
101 to 500 | – | O=C(NC(CC1CCOCC1)c1ccccc1)c1ccc(-c2cc(Cl)ccc2-c2nc3ccccc3[nH]2)c(C(=O)O)c1 (stereo not shown) [Example 217, 2′-(1H-1,3-benzodiazol-2-yl)-5′-chloro-4-{[2-(oxan-4-yl)-1-phenylethyl]carbamoyl}-[1,1′-biphenyl]-2-carboxylic acid] | –
< 10 | < 10 | CCCC(NC(=O)c1ccc(-c2c(Cl)cccc2-c2nc3ccccc3[nH]2)c(C(=O)O)c1)c1ccccc1OC [Example 225, (S)-2′-(1H-1,3-benzodiazol-2-yl)-6′-chloro-4-{[1-(2-methoxyphenyl)butyl]carbamoyl}-[1,1′-biphenyl]-2-carboxylic acid] | –
< 10 | < 10 | COc1cc2nc(-c3cccc(Cl)c3-c3ccc(C(=O)N[C@H](c4ccc(F)cc4)C4CC4)cc3C(=O)O)[nH]c2cc1F [Example 232, (S)-2′-chloro-4-{[cyclopropyl(4-fluorophenyl)methyl]carbamoyl}-6′-(6-fluoro-5-methoxy-1H-1,3-benzodiazol-2-yl)-[1,1′-biphenyl]-2-carboxylic acid] | –
< 10 | < 10 | CCCC(NC(=O)c1ccc(-c2cc(Cl)ccc2-c2nc3cc(C(C)(C)C)ccc3[nH]2)c(C(=O)O)c1)c1ccccc1OC (stereo not shown) [Example 241, 2′-(5-tert-butyl-1H-1,3-benzodiazol-2-yl)-5′-chloro-4-{[1-(2-methoxyphenyl)butyl]carbamoyl}-[1,1′-biphenyl]-2-carboxylic acid] | –

— patent publication US11498903B2 (BRISTOL-MYERS SQUIBB COMPANY, priority 2017, dated 2022)
